Experimental data from US7034056B2, “Aryl and biaryl compounds having MCH modulatory activity” (Pharmacopeia Drug Discovery, inc., priority 2001, dated 2006).

biological target: T1, hMCHR (MCH receptor) (Homo sapiens, UniProt Q99705); assay: MCH Assay PCOP Protocol ([125I]-MCH SPA binding to hMCHR-CHO membranes); conditions: [125I]-MCH 0.5 nM, hMCHR-CHO membranes; read-out: Activity (ranges of Ki values);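 on Activity (Ki range): A 0.4–50 nM B 51–500 nM C 501–2500 nM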
T1 construct: (or internally produced); host or cells: CHO (Chinese hamster ovary) cells, membrane preparation
T1 sequence (Q99705 whole entry): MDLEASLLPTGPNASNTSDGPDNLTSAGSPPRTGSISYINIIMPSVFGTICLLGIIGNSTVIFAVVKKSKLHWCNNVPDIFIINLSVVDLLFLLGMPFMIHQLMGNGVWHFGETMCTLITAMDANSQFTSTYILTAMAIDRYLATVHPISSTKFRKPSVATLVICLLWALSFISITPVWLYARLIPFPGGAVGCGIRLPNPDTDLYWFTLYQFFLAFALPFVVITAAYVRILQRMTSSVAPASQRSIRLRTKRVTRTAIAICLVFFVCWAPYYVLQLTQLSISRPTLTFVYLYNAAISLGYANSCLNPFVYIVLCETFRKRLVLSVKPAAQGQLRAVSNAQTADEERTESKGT
Outline: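 SPA binding with 10 μg hMCHR-CHO membranes and WGA-SPA beads in 25 mM HEPES pH 7.4, 10 mM NaCl, 10 mM MgCl2, 5 mM MnCl2, 0.1% BSA.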

| SMILES | Ki [nM] |
| --- | --- |
| Cc1ccc(C(CCNC2CCCC2)CNC(=O)Nc2cccc(Cl)c2)cc1 (stereo not drawn) [Example 142] | 501 to 2500 |
| CNCCC(CNC(=O)c1ccc(F)c(F)c1)c1ccc(-c2cccc(C#N)c2)cc1 (racemic) [Example 24, (R,S)-N-[2-(3′-Cyano-biphenyl-4-yl)-4-methylamino-butyl]-3,4-difluoro-benzamide] | 501 to 2500 |
| O=C(NCC(CCNC1CCCC1)c1ccc(Cl)c(Cl)c1)Nc1cccc(Cl)c1 (stereo not drawn) [Example 130] | 51 to 500 |
| CN(C)CCC(OC(=O)Nc1cc(Cl)cc(Cl)c1)c1ccc(-c2cccnc2)cc1 (stereo not drawn) [Example 42] | 501 to 2500 |
| COc1cc(-c2cccc(C(CCNC3CCCC3)CNC(=O)Nc3cc(Cl)cc(Cl)c3)c2)cc(OC)c1OC (stereo not drawn) [Example 153] | 51 to 500 |
| COCC(=O)NC1CCN(CCC(CNC(=O)Nc2cc(Cl)cc(Cl)c2)c2ccc(C)cc2)CC1 (stereo not drawn) [Example 213] | 501 to 2500 |
| O=C(NCC(CCN1CCC(NC(=O)c2ccno2)CC1)c1ccc(Cl)cc1)Nc1cc(Cl)cc(Cl)c1 (stereo not drawn) [Example 214] | 501 to 2500 |
| COCC(=O)NC1CCN(CCC(CNC(=O)Nc2cc(Cl)cc(Cl)c2)c2ccc(Cl)cc2)CC1 (stereo not drawn) [Example 192] | 51 to 500 |
| CC(=O)NC1CCN(CCC(CNC(=O)Nc2cc(Cl)cc(Cl)c2)c2ccc(Cl)c(Cl)c2)C1 (stereo not drawn) [Example 210] | 501 to 2500 |
| CCOC(=O)N1CCC(NCCC(CNC(=O)Nc2cccc(C(F)(F)F)c2)c2ccc(Cl)cc2)CC1 (stereo not drawn) [Example 128] | 51 to 500 |
| CC(=O)NC1CCN(CCC(CNC(=O)Nc2cc(Cl)cc(Cl)c2)c2ccc(Cl)cc2)C1 (stereo not drawn) [Example 186] | 51 to 500 |
| O=C(NCC(CCNC1CCCC1)c1cccc(-c2ccc(Cl)c(Cl)c2)c1)Nc1cc(Cl)cc(Cl)c1 (stereo not drawn) [Example 157] | 51 to 500 |
| CN(C)CCCNCCC(CNC(=O)Nc1cc(Cl)cc(Cl)c1)c1cccc(-c2ccc(Cl)cc2)c1 (stereo not drawn) [Example 151] | 51 to 500 |
| COc1cscc1C(=O)NC1CCN(CCC(CNC(=O)Nc2cc(Cl)cc(Cl)c2)c2ccc(Cl)c(Cl)c2)C1 (stereo not drawn) [Example 200] | 501 to 2500 |
| CN(C)CCC(CNC(=O)Nc1cccnc1)c1ccc(-c2cccc(C#N)c2)cc1 (stereo not drawn) [Example 71] | 51 to 500 |
| COc1cccc(NC(=O)NCC(CCN(C)C)c2ccc(-c3cccc(C#N)c3)cc2)c1 (stereo not drawn) [Example 63] | 0.4 to 50 |
| CN(C)CCC(CNC(=O)Nc1cc(Cl)cc(Cl)c1)c1ccc(-c2cccnc2)cc1 (stereo not drawn) [Example 36] | 0.4 to 50 |
| N#Cc1cccc(-c2cccc(C(CCNC3CCCC3)CNC(=O)Nc3cc(Cl)cc(Cl)c3)c2)c1 (stereo not drawn) [Example 149] | 51 to 500 |
| Cc1ccc(-c2cccc(C(CCNC3CCCC3)CNC(=O)Nc3cc(Cl)cc(Cl)c3)c2)cc1 (stereo not drawn) [Example 161] | 501 to 2500 |
| CN(C)CCCNCCC(CNC(=O)Nc1cc(Cl)cc(Cl)c1)c1cccc(-c2ccc(C(F)(F)F)cc2)c1 (stereo not drawn) [Example 150] | 51 to 500 |
| CN(C)CCCNCCC(CNC(=O)Nc1cc(Cl)cc(Cl)c1)c1cccc(-c2cc(C(F)(F)F)cc(C(F)(F)F)c2)c1 (stereo not drawn) [Example 175] | 501 to 2500 |
| O=C(NCC(CCNC1CCCC1)c1ccc(Cl)c(Cl)c1)Nc1ccc(F)c(Cl)c1 (stereo not drawn) [Example 134] | 51 to 500 |

same assay, conditions: [125I]-MCH SPA binding, hMCHR-CHO membranes; Ki class ranges; read-out: Activity (range of Ki)

| SMILES | Ki [nM] |
| --- | --- |
| COc1ccc2c(CCNCCC(CNC(=O)Nc3cc(C(F)(F)F)cc(C(F)(F)F)c3)c3ccc(Cl)c(Cl)c3)c[nH]c2c1 (stereo not drawn) [Example 437] | 501 to 2500 |
| COc1cc(CN(C)CCC(CNC(=O)Nc2cc(C(F)(F)F)cc(C(F)(F)F)c2)c2ccc(Cl)c(Cl)c2)cc(OC)c1OC (stereo not drawn) [Example 421] | 51 to 500 |
| Cc1ccc(C(=O)NCC(CCN2CCCCC2)c2ccc(Cl)c(Cl)c2)cc1 (stereo not drawn) [Example 450] | 501 to 2500 |
| O=C(NCC(CCN1CCCCC1)c1ccc(Cl)c(Cl)c1)c1ccc(F)cc1 (stereo not drawn) [Example 455] | 501 to 2500 |
| CS(=O)(=O)c1ccc(CNCCC(CNC(=O)Nc2cc(C(F)(F)F)cc(C(F)(F)F)c2)c2ccc(Cl)c(Cl)c2)cc1 (stereo not drawn) [Example 436] | 501 to 2500 |
| O=C(NCC(CCN1CCC(O)C1)c1ccc(Cl)c(Cl)c1)Nc1cc(C(F)(F)F)cc(C(F)(F)F)c1 (stereo not drawn) [Example 427] | 501 to 2500 |
| O=C(NCC(CCN1CCC(CO)C1)c1ccc(Cl)c(Cl)c1)Nc1cc(C(F)(F)F)cc(C(F)(F)F)c1 (stereo not drawn) [Example 432] | 501 to 2500 |
| O=C(NCC(CCNCCc1ccc(O)cc1)c1ccc(Cl)c(Cl)c1)Nc1cc(C(F)(F)F)cc(C(F)(F)F)c1 (stereo not drawn) [Example 426] | 501 to 2500 |
| O=C(NCC(CCN1CCCCC1)c1ccc(Cl)c(Cl)c1)c1cccc(C(F)(F)F)c1 (stereo not drawn) [Example 449] | 501 to 2500 |
| O=C(NCC(CCNCCN1CCOCC1)c1ccc(Cl)c(Cl)c1)Nc1cc(C(F)(F)F)cc(C(F)(F)F)c1 (stereo not drawn) [Example 428] | 501 to 2500 |

same assay, conditions: [125I]-MCH binding to hMCHR-CHO membranes; class symbols for ranges of Ki; read-out: Activity (Ki range)

| SMILES | Ki [nM] |
| --- | --- |
| Cc1ccc2[nH]cc(CCNCCC(CNC(=O)c3cc(C(F)(F)F)cc(C(F)(F)F)c3)c3ccc(Cl)c(Cl)c3)c2c1 (stereo not drawn) [Example 410] | 501 to 2500 |
| O=C(NCC(CCNC1CCCC1)c1ccc(-c2ccc(C(F)(F)F)cc2)cc1)Nc1cc(Cl)cc(Cl)c1 (stereo not drawn) [Example 250] | 51 to 500 |
| O=C(NCC(CCN1CCCCC1)c1ccc(Cl)c(Cl)c1)c1cc(C(F)(F)F)cc(C(F)(F)F)c1 (stereo not drawn) [Example 403] | 501 to 2500 |
| CCOC(=O)N1CCC(NCCC(CNC(=O)Nc2cccc(C(F)(F)F)c2)c2ccc(Cl)c(Cl)c2)CC1 (stereo not drawn) [Example 281] | 51 to 500 |
| CN1CCCC1CCNCCC(CNC(=O)Nc1cccc(C(F)(F)F)c1)c1ccc(Cl)c(Cl)c1 (stereo not drawn) [Example 300] | 501 to 2500 |
| CCOC(=O)N1CCC(NCCC(CNC(=O)Nc2ccc(F)c(F)c2)c2ccc(Cl)c(Cl)c2)CC1 (stereo not drawn) [Example 262] | 51 to 500 |
| Cc1ccc(C(CCNC2CCC2)CNC(=O)Nc2cc(Cl)cc(Cl)c2)cc1 (stereo not drawn) [Example 272] | 51 to 500 |
| O=C(NCC(CCN1CCC(CNC2(CO)CCCC2)CC1)c1ccc(Cl)c(Cl)c1)c1cc(C(F)(F)F)cc(C(F)(F)F)c1 (stereo not drawn) [Example 416] | 501 to 2500 |
| N#Cc1cccc(NC(=O)NCC(CCN2CCC(N3CCCCC3)CC2)c2ccc(Cl)c(Cl)c2)c1 (stereo not drawn) [Example 375] | 501 to 2500 |
| COc1ccccc1-c1ccc(C(CCNCCCN(C)C)CNC(=O)Nc2cc(Cl)cc(Cl)c2)cc1 (stereo not drawn) [Example 252] | 51 to 500 |
| O=C(NCC(CCNC1CCCCC1)c1ccc(Cl)cc1)Nc1cc(Cl)cc(Cl)c1 (stereo not drawn) [Example 266] | 51 to 500 |
| CCCN(CC)CCC(CNC(=O)Nc1cccc(C(F)(F)F)c1)c1ccc(Cl)c(Cl)c1 (stereo not drawn) [Example 288] | 51 to 500 |
| O=C(NCC(CCN1CCc2c([nH]c3ccccc23)C1)c1ccc(Cl)c(Cl)c1)c1cc(C(F)(F)F)cc(C(F)(F)F)c1 (stereo not drawn) [Example 397] | 501 to 2500 |
| O=C(NCC(CCNC1CCCC1)c1ccc(-c2cccc(C(=O)O)c2)cc1)Nc1cc(Cl)cc(Cl)c1 (stereo not drawn) [Example 248] | 51 to 500 |
| O=C(NCC(CCNC1CCCC1)c1ccc(-c2ccc(F)c(Cl)c2)cc1)Nc1cc(Cl)cc(Cl)c1 (stereo not drawn) [Example 226] | 51 to 500 |
| CCOC(=O)N1CCC(NCCC(CNC(=O)Nc2ccc(F)c(Cl)c2)c2ccc(Cl)c(Cl)c2)CC1 (stereo not drawn) [Example 260] | 51 to 500 |
| Cc1ccc(C(CCNC2CCCC2)CNC(=O)Nc2cc(C(F)(F)F)cc(C(F)(F)F)c2)cc1 (stereo not drawn) [Example 269] | 51 to 500 |
| O=C(NCc1cc(C(F)(F)F)cc(C(F)(F)F)c1)C(CCN1CCCC(CO)C1)c1ccc(Cl)c(Cl)c1 (stereo not drawn) [Example 387] | 501 to 2500 |
| O=S(=O)(NCC(CCN1CCC(N2CCCCC2)CC1)c1ccc(Cl)c(Cl)c1)c1cccc(C(F)(F)F)c1 (stereo not drawn) [Example 376] | 501 to 2500 |

| SMILES | Ki [nM] |
| --- | --- |
| O=C(NCC(CCN1CCC(N2CCCCC2)CC1)c1ccc(Cl)c(Cl)c1)Nc1ccc([N+](=O)O)cc1 (stereo not drawn) [Example 315] | 51 to 500 |
| O=C(NCC(CCN1CCNCC1)c1ccc(Cl)c(Cl)c1)Nc1cc(Cl)cc(Cl)c1 (stereo not drawn) [Example 308] | 501 to 2500 |
| CCOC(=O)N1CCC(NCCC(CNC(=O)Nc2ccc(F)c([N+](=O)[O-])c2)c2ccc(Cl)c(Cl)c2)CC1 (stereo not drawn) [Example 264] | 501 to 2500 |
| O=C(NCC(CCN1CCC(N2CCCCC2)CC1)c1ccc(Cl)c(Cl)c1)Nc1cc(C(F)(F)F)ccc1F (stereo not drawn) [Example 373] | 501 to 2500 |
| CN(C)CCCNCCC(CNC(=O)Nc1cc(Cl)cc(Cl)c1)c1ccc(-c2cccc([N+](=O)[O-])c2)cc1 (stereo not drawn) [Example 220] | 0.4 to 50 |
| O=C(NCC(CCNC1CCCC1)c1ccc(-c2ccc(Cl)c(Cl)c2)cc1)Nc1cc(Cl)cc(Cl)c1 (stereo not drawn) [Example 245] | 51 to 500 |
| CN(CCC(CNC(=O)c1cc(C(F)(F)F)cc(C(F)(F)F)c1)c1ccc(Cl)c(Cl)c1)C1CCCCC1 (stereo not drawn) [Example 408] | 501 to 2500 |
| CCNC(=O)NC1CCN(CCC(CNC(=O)Nc2cc(Cl)cc(Cl)c2)c2ccc(Cl)c(Cl)c2)C1 (stereo not drawn) [Example 316] | 501 to 2500 |
| O=S(=O)(NCC(CCNCCc1c[nH]c2ccccc12)c1cccc(F)c1)c1ccc(Cl)c(Cl)c1 (stereo not drawn) [Example 339] | 501 to 2500 |
| O=C(NCC(CCNCCCn1ccnc1)c1ccc(Cl)c(Cl)c1)c1cc(C(F)(F)F)cc(C(F)(F)F)c1 (stereo not drawn) [Example 414] | 501 to 2500 |
| Cc1ccc(C(CCN2CCC(N)CC2)CNC(=O)Nc2cc(Cl)cc(Cl)c2)cc1 (stereo not drawn) [Example 324] | 501 to 2500 |
| CCNC(=O)NC1CCN(CCC(CNC(=O)Nc2cc(Cl)cc(Cl)c2)c2ccc(Cl)c(Cl)c2)CC1 (stereo not drawn) [Example 323] | 501 to 2500 |
| CN1CCCC1CCNCCC(CNC(=O)Nc1ccc(Cl)c(Cl)c1)c1ccc(Cl)c(Cl)c1 (stereo not drawn) [Example 298] | 501 to 2500 |
| O=C(NCC(CCNC1CCCC1)c1ccc(Cl)c(Cl)c1)Nc1cc(C(F)(F)F)cc(C(F)(F)F)c1 (stereo not drawn) [Example 328] | 0.4 to 50 |
| O=C(NCc1cc(C(F)(F)F)cc(C(F)(F)F)c1)C(CCNCCCn1ccnc1)c1ccc(Cl)c(Cl)c1 (stereo not drawn) [Example 388] | 501 to 2500 |
| O=C(NCC(CCNCCc1ccc(O)cc1)c1ccc(Cl)c(Cl)c1)c1cc(C(F)(F)F)cc(C(F)(F)F)c1 (stereo not drawn) [Example 392] | 51 to 500 |
| CN(C)CCCNCCC(CNC(=O)Nc1cc(Cl)cc(Cl)c1)c1ccc(-c2ccc3c(c2)OCO3)cc1 (stereo not drawn) [Example 223] | 0.4 to 50 |
| O=C(NCC(CCN1CCNCC1)c1ccc(Cl)c(Cl)c1)Nc1cc(C(F)(F)F)cc(C(F)(F)F)c1 (stereo not drawn) [Example 371] | 501 to 2500 |
